Assay results: US7122624B2, “Parathyroid hormone receptor ligands” (The United States of America as represented by the …, priority 1999, dated 2006)
Where two headings read alike, the source gives them in different places. Non-standard residues stand in square brackets, D forms with d. Residues, ends and D or L forms follow the SMILES beside them. Tyr(3-I) = N[C@@H](Cc1ccc(O)c(I)c1)C(=O)O; Nle = CCCC[C@H](N)C(=O)O

Key:
[1] = target: T1, human PTH1 receptor (Homo sapiens, UniProt Q03431); assay: cAMP accumulation in HEK293 cells stably expressing the human PTH1 receptor (293PTH1); assay type: cell-based; set-up: expressed in transfected cells
T1 sequence (Q03431 27-593): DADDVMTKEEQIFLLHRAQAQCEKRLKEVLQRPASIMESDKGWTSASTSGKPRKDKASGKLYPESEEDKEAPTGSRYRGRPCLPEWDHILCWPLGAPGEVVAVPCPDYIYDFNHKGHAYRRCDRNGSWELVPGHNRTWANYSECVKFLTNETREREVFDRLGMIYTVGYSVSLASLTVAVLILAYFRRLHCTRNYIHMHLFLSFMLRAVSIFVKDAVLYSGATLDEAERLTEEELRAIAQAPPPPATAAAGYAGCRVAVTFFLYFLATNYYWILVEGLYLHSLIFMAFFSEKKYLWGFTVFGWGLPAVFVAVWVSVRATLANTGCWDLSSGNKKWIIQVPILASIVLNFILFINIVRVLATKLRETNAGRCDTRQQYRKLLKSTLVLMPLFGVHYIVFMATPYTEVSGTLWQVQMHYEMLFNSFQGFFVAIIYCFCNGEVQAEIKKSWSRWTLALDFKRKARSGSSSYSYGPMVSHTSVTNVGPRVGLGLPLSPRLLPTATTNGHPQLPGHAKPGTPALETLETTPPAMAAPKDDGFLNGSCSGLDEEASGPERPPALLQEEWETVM

[2] = target: T2, PTH2 receptor (Homo sapiens, UniProt P49190); assay: cAMP accumulation in HEK293 cells stably expressing the human PTH2 receptor (293PTH2); assay type: cell-based; set-up: expressed in transfected cells; conditions: 1 μM peptide
Protocol: COS-7 cells were grown as previously described in Clark et al. For cAMP accumulation assays COS-7 cells were transfected as previously described in Clark et al. except that transfections were performed in 10 cm tissue culture dishes using 10 μg of plasmid DNA. The cells were transferred following trypsinization to 96-well plates at a density of 50,000 cells/well the following day. Cells were used for cAMP accumulation assays three days after transfection.
Ligand-stimulated accumulation of cAMP was measured as described in Examples, using a radioimmunoassay to quantify cAMP (Clark et al., supra).
For cAMP accumulation data y is the amount of cAMP produced at a given peptide concentration, min is the cAMP level in the absence of ligand and max is the maximum level produced. […] Statistical comparison of multiple means was performed initially by single-factor analysis of variance followed by post-hoc analysis with the Newman-Keuls test. Statistical comparison of two means was performed using a two-tailed Student's t-test.

[3] = target: T1, human PTH1 receptor; set-up: expressed in transfected cells; host or cells: COS-7 (transient); conditions: cited from earlier work
[4] = target: T2, PTH2 receptor; assay: cAMP accumulation in COS-7 cells transiently expressing the human PTH2 receptor; assay type: cell-based; set-up: expressed in transfected cells; host or cells: COS-7 (transient); conditions: COS-7
Description: Cell culture supplies were obtained from Life Technologies (Frederick, Md.) except for fetal bovine serum which was from Sigma (St. Louis, Mo.).
The constructs containing the cDNA sequences of the human PTH2 receptor and β-galactosidase have been previously described.
All peptides were purchased from either Bachem (Torrance, Calif.) or Peninsula Laboratories (Belmont, Calif.). The letters ‘b,’ ‘r’ and ‘h’ designate the peptide sequence as bovine, rat and human, respectively. […] [α-^32P]dCTP was purchased from ICN Biomedicals (Costa Mesa, Calif.). Bovine hypothalamic extract was prepared by acid extraction, gel-filtration and reverse-phase HPLC as previously described. […] Antagonist inhibitory potency was examined by measuring the concentration-dependence of rPTH(1–34)-stimulated cAMP accumulation in the presence and absence of antagonist.
Statistical comparison of two sample means was evaluated using the two-tailed Student's t-test. […] Antagonist inhibitory potency was quantified using the pA2, value, the negative logarithm of the concentration of antagonist that produces a two-fold decrease of agonist EC50. This was calculated using the following equation: pA2=((EC50/EC50′)−1)−log [antagonist]

[5] = target: T1, human PTH1 receptor; assay: [125I]TIP(7–39) saturation and kinetic binding to the human PTH1 receptor in HEK293 cell membranes; set-up: expressed in transfected cells
Protocol: Binding of [^125I]TIP(7–39) to HEK293 membranes expressing the PTH1 receptor (FIGS. 21 and 22) was performed using rapid filtration to separate bound and free radioligand as described in Examples, using the assay buffer described above. Incubations were carried out in 96-well polypropylene plates. The incubation mixture was transferred to a polyvinylidene fluoride filtration plate (MAHVN45, Millipore, Bedford, Mass.) and the membranes collected by rapid filtration using a Millipore Multiscreen vacuum manifold. In saturation experiments, varying concentrations of [^125I]TIP(7–39) were incubated in triplicate with 10 μg membranes in the absence or presence of 1 μM unlabeled TIP(7–39) (for measurement of total binding and non-specific binding, respectively) for 1 hour at 21° C. In radioligand association experiments, radioligand and buffer were brought to 21° C. by incubation in a water bath for 15 minutes. Similarly pre-warmed membranes were then added to the wells at various time points and the assay wells harvested simultaneously. Non-specific binding in these experiments was defined using 300 nM unlabeled TIP(7–39), incubated with membranes and radioligand for 1 minute and 60 minutes. In the experiment in FIG. 23 a second, unlabeled ligand was included in the assay incubation in order to estimate the association and dissociation rate constants of the unlabeled ligand (see below). In dissociation experiments radioligand and membranes were equilibrated for 60 minutes prior to addition of unlabeled TIP(7–39) (300 nM final concentration) at various time points. All time points were harvested simultaneously. (As a result the shorter time points of the time course were equilibrated with radioligand for between 1 and 2 hours.) Non-specific binding was defined using 300 nM unlabeled TIP(7–39), which was included in the equilibration phase of the assay.
[^125I]TIP(7–39) saturation of the PTH1 receptor was analyzed as follows: First, non-specific binding (measured in the presence of 1 μM TIP(7–39)) was estimated as a fraction of the free radioligand concentration by linear regression. The values of KD and Bmax were obtained by fitting total binding data (measured in the absence of unlabeled ligand) to the following equation using Prism 2.01:
[^125I]TIP(7–39) association data (total binding) were fitted to a bi-exponential association equation to account for association to specific and non-specific sites (FIG. 23). This procedure was used because the value of non-specific binding measured after 60 minutes was slightly greater than the value measured after 1 minute. In the analysis the equilibrium level of non-specific binding was fixed at that measured at 60 minutes. The observed association rate constant for non-specific binding was high (>2 min^−1). The observed association rate of specific radioligand (L) binding (kon(obs)) was fitted by linear regression to the equation kon(obs)=koff+kon[L] where kon and koff are the association and dissociation rate constants respectively. [^125I]TIP(7–39) dissociation data were fitted to a mono-exponential dissociation equation.
The association and dissociation rate constants of unlabeled ligands were determined using the method devised by Motulsky and Mahan, Mol Pharmacol 25, 1–9, 1984, in which association of a radiolabeled antagonist ([^125I]TIP(7–39)) is measured in the presence of a fixed concentration of the unlabeled ligand. […]

[6] = target: T3, C-terminal hemaglutinin-tagged human PTH1 receptor (Homo sapiens, UniProt Q03431); assay: cAMP accumulation in COS-7 cells expressing a C-terminal hemaglutinin-tagged human PTH1 receptor; assay type: cell-based; conditions: COS-7; five experiments; read-out: Emax, % of the maximal response to rPTH(1–34)
T3 sequence (Q03431 27-593): T1 sequence (Q03431 27-593)

T2 sequence (P49190 25-550): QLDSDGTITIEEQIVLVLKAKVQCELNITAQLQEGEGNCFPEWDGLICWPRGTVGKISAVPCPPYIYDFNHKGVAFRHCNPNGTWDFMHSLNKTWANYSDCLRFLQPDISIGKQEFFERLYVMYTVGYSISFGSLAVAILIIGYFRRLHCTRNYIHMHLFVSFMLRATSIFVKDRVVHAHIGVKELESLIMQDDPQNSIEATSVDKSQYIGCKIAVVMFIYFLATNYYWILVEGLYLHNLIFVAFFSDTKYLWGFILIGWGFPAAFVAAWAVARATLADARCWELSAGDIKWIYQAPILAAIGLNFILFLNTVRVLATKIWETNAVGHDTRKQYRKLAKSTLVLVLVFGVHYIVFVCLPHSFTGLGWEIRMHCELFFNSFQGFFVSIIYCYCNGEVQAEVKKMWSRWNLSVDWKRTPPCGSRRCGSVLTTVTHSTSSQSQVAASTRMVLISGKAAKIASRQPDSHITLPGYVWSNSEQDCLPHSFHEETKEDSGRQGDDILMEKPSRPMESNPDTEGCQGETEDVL

SMILES: CC[C@H](C)[C@H](NC(=O)[C@H](CCC(=O)O)NC(=O)[C@H](CO)NC(=O)[C@@H](NC(=O)[C@H](C)N)C(C)C)C(=O)N[C@@H](CCC(N)=O)C(=O)N[C@@H](CC(C)C)C(=O)N[C@@H](CCSC)C(=O)N[C@@H](Cc1c[nH]cn1)C(=O)N[C@@H](CC(N)=O)C(=O)N[C@@H](CC(C)C)C(=O)NCC(=O)N[C@@H](CCCCN)C(=O)N[C@@H](Cc1c[nH]cn1)C(=O)N[C@@H](CC(C)C)C(=O)N[C@@H](C)C(=O)N[C@@H](CO)C(=O)N[C@H](C(=O)N[C@@H](CCC(=O)O)C(=O)N[C@@H](CCCNC(=N)N)C(=O)N[C@@H](CCSC)C(=O)N[C@@H](CCC(N)=O)C(=O)N[C@@H](Cc1c[nH]c2ccccc12)C(=O)N[C@@H](CC(C)C)C(=O)N[C@@H](CCCNC(=N)N)C(=O)N[C@@H](CCCCN)C(=O)N[C@@H](CCCCN)C(=O)N[C@@H](CC(C)C)C(=O)N[C@@H](CCC(N)=O)C(=O)N[C@@H](CC(=O)O)C(=O)N[C@H](C(=O)N[C@@H](Cc1c[nH]cn1)C(=O)N[C@@H](CC(N)=O)C(=O)N[C@@H](Cc1ccccc1)C(=O)O)C(C)C)C(C)C [PTH]
- stimulation of cAMP accumulation ([1]; 1 μM peptide): approximately 50 fold
- stimulation of cAMP accumulation [2]: approximately 50 fold

SMILES: CCCC[C@H](NC(=O)[C@H](CO)NC(=O)[C@H](CO)NC(=O)[C@H](CC(C)C)NC(=O)[C@H](Cc1c[nH]cn1)NC(=O)[C@H](CCCCN)NC(=O)CNC(=O)[C@H](CC(C)C)NC(=O)[C@H](CC(N)=O)NC(=O)[C@H](Cc1c[nH]cn1)NC(=O)[C@H](CCCC)NC(=O)[C@H](Cc1ccccc1)NC(=O)[C@H](CCC(N)=O)NC(=O)[C@@H](NC(=O)[C@H](CCC(=O)O)NC(=O)[C@@H](N)CO)[C@@H](C)CC)C(=O)N[C@@H](CCC(=O)O)C(=O)N[C@@H](CCCNC(=N)N)C(=O)N[C@H](C(=O)N[C@@H](CCC(=O)O)C(=O)N[C@@H](Cc1c[nH]c2ccccc12)C(=O)N[C@@H](CC(C)C)C(=O)N[C@@H](CCCNC(=N)N)C(=O)N[C@@H](CCCCN)C(=O)N[C@@H](CCCCN)C(=O)N[C@@H](CC(C)C)C(=O)N[C@@H](CCC(N)=O)C(=O)N[C@@H](CC(=O)O)C(=O)N[C@H](C(=O)N[C@@H](Cc1c[nH]cn1)C(=O)N[C@@H](CC(N)=O)C(=O)N[C@@H](Cc1ccc(O)cc1)C(N)=O)C(C)C)C(C)C [[Nle^8,18, Tyr^34]bPTH(3-34), [Nle^8,18, Tyr^34]bPTH(3–34) amide] (H-SEIQF[Nle]HNLGKHLSS[Nle]ERVEWLRKKLQDVHNY-NH2; N-terminus assumed)
- Bmax ([3]; homologous displacement experiments): 0.7 pmol/mg
- Kd ([3]; reported previously): 2 nM
- activation of the PTH1 receptor ([1]; 293PTH1 cells, cAMP): not detected
- EC50 ([4]; activation of adenylyl cyclase, figures in brackets): 5.2 nM
- agonist character ([4]; cAMP): partial agonists
- Emax ([4]; read-out: Emax, % of response to 1 μM hPTH(1-34), intrinsic activity): 37 ± 3%
- koff ([5]; estimated by Equation 4 from [125I]TIP(7–39) association, read-out: dissociation rate constant of unlabeled ligand (converted)): 0.0005 s⁻¹
- Emax [6]: 26 ± 4%

SMILES: CSCC[C@H](NC(=O)[C@H](Cc1ccc(O)c(I)c1)NC(=O)[C@H](CO)NC(=O)[C@H](CC(N)=O)NC(=O)[C@H](CC(C)C)NC(=O)[C@H](Cc1c[nH]c2ccccc12)NC(=O)[C@H](Cc1c[nH]cn1)NC(=O)[C@H](CCCNC(=N)N)NC(=O)[C@H](CCCNC(=N)N)NC(=O)[C@H](CCC(=O)O)NC(=O)[C@H](CC(C)C)NC(=O)[C@H](C)NC(=O)[C@H](C)NC(=O)[C@H](CC(C)C)NC(=O)[C@H](CC(C)C)NC(=O)[C@H](CCCNC(=N)N)NC(=O)[C@H](C)NC(=O)[C@H](CCCNC(=N)N)NC(=O)[C@H](CCC(=O)O)NC(=O)[C@H](CCCNC(=N)N)NC(=O)[C@H](Cc1ccccc1)NC(=O)[C@H](C)NC(=O)[C@H](C)NC(=O)[C@@H](N)CC(=O)O)C(=O)N[C@@H](Cc1c[nH]cn1)C(=O)N[C@@H](CCCCN)C(=O)N[C@@H](CC(C)C)C(=O)N[C@@H](CC(C)C)C(=O)N[C@H](C(=O)N[C@@H](CC(C)C)C(=O)N[C@@H](CC(=O)O)C(=O)N[C@@H](C)C(=O)N1CCC[C@H]1C(=O)O)C(C)C [[^125I]TIP(7–39)] (H-DAAFRERARLLAALERRHWLNS[Tyr(3-I)]MHKLLVLDAP-OH; N-terminus and C-terminus assumed)
- koff ([5]; directly measured from dissociation time course, read-out: dissociation rate constant (k2) (converted)): 0.00085 s⁻¹
- koff ([5]; estimate from the plot of kon(obs) vs. concentration of radioligand, read-out: dissociation rate constant (converted)): 0.00128 s⁻¹
- kon ([5]; held constant in Equation 4 analysis, read-out: association rate constant (k1) (converted)): 1.48e+06 M⁻¹ s⁻¹
- Bmax ([5]; saturation experiments, n=3): 1.3 ± 0.1 pmol/mg
